Measurements reported in patent US20110152501A1, “Activatable Imaging Probes” (THE GENERAL HOSPITAL CORPORATION, priority 2001, published 2011).
Non-standard residues stand in square brackets, D forms with d. Primed or numbered codes have the meaning given here. No end group written: not given here. *: point of attachment. FITC = O=C1OC2(c3ccc(O)cc3Oc3cc(O)ccc32)c2ccc(NC(=S)*)cc21; Pip′ = not defined here

Experiments:
Format in all cases: biochemical
MMP-2 [1] = target: T1, MMP-2 (Homo sapiens, UniProt P08253); assay: HPLC analysis of peptide substrates after incubation with MMP-2
T1 construct: purchased Boehringer-Mannheim, Ind
T1 sequence (P08253 110-660): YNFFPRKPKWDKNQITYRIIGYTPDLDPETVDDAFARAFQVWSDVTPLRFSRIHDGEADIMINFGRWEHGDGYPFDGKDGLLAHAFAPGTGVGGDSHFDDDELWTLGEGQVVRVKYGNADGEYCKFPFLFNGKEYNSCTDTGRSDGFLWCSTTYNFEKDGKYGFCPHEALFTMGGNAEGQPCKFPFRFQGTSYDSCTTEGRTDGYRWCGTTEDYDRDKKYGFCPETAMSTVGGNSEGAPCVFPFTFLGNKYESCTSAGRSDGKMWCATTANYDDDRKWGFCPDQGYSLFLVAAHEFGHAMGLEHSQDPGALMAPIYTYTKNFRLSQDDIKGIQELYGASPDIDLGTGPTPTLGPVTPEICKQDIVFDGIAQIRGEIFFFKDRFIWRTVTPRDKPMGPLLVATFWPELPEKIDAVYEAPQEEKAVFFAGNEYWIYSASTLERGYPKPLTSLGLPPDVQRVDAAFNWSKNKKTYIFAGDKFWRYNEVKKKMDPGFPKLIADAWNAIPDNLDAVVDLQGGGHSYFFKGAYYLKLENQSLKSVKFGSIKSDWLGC
Experimental: The synthesized probes contain a preferential MMP-2 peptide substrate. Two different peptide substrates were used in this study, an MMP-2 cleavable peptide ([…](FITC)C-NH2 (SEQ ID NO:10) (substrate sites are italicized)) and a scrambled control peptide. […] Although the latter control probe has a GVR leader sequence, it is too short to be recognized by MMP-2.
Characterization of probe. A number of experiments were conducted to characterize the peptide substrate and imaging probes. Initially we performed HPLC analysis of peptide and control substrates prior to and after incubation with 1 U of MMP-2. One unit is the activity that hydrolyzes 1 μg of type IV collagen within 1 hour using a commercially available assay (gelatinase 72 kD, Boehringer Mannheim, Indianapolis, Ind.). Reverse phase HPLC (Brownlee, Spheri-5, ODS, 30×4.6 mm), using 0.1% TFA and acetonitrile as elution buffers was performed (Rainin Instruments, Woburn, Mass.). […] The control probe contained the scrambled peptide. To determine the range of enzyme activation, a constant amount of imaging probe (26.6 pmol) was incubated with variable amounts of activated MMP-2 and fluorescence was determined after 24 hours. […]

thrombin = target: T2, thrombin (Homo sapiens, UniProt P00734); assay: Enzymatic assay of peptide cleavage by thrombin (HPLC)
T2 construct: tested with purified thrombin in PBS buffer
Text: In contrast, there was no cleavage when the serine at P1′ position was replaced by a proline residue.

MMP-2 [2] = target: T1, MMP-2; assay: Inhibition of MMP-2 mediated probe activation by inhibitors; conditions: 1 mM
Experimental: Using 5 U of MMP-2 and 19 pmol of imaging probe, we performed a dose response study of mediated MMP inhibition up to 0.1 mM of inhibitor.
To determine the range of enzyme activation, a constant amount of imaging probe (26.6 pmol) was incubated with variable amounts of activated MMP-2 and fluorescence was determined after 24 hours. Inhibition experiments were performed by incubating 1 U of purified, activated MMP-2 with 19 pmol NIRF probe (220 pmol Cy 5.5) in the presence of different inhibitors, 1.10 phenanthroline (1 mM, Aldrich, Milwaukee, Wis.), a Zinc chelator, or a direct MMP-2 inhibitor.

purified thrombin = target: T3, purified thrombin (Homo sapiens, UniProt P00734); assay: Probe activation with purified thrombin in PBS buffer, NIRF signal over time; conditions: thrombin added to solutions containing thrombin probe and hirudin, compared to hirudin-free solutions
T3 construct: tested with purified thrombin in PBS buffer
Experimental: The prepared probes were first tested with purified thrombin in PBS buffer as the NIRF signal was recorded over time. […] Following addition of thrombin, NIRF signal increased from 150 AU to 4100 AU within 20 minutes (27 fold increase). […] There was a clear dose response when the probe was incubated with different amounts of thrombin.

Compound: Gly-Pro-Leu-Gly-Val-Arg-Gly-Lys(FITC)-Cys-NH2 (GPLGVRGK(FITC)C-NH2; N-terminus assumed; SMILES CC(C)C[C@H](NC(=O)[C@@H]1CCCN1C(=O)CN)C(=O)NCC(=O)N[C@H](C(=O)N[C@@H](CCCNC(=N)N)C(=O)NCC(=O)N[C@@H](CCCCNC(=S)Nc1ccc2c(c1)C(=O)OC21c2ccc(O)cc2Oc2cc(O)ccc21)C(=O)N[C@@H](CS)C(N)=O)C(C)C)
- cleavage by MMP-2 (MMP-2 [1]): cleavage of the former

Compound: Gly-D-Phe-Pip-Arg-Ser-Gly-Gly-Gly-Gly-Lys(FITC)-Cys-NH2 (G[dF][Pip′]RSGGGGK(FITC)C-NH2) [C-terminal extended peptide]
- cleavage by thrombin (thrombin; HPLC): cleaved into two major products

Compound: c1cnc2c(c1)ccc1cccnc12 [1,10 phenanthroline]
- blocking of fluorescence activation (MMP-2 [2]): completely blocked

Compound: hirudin
- effect on thrombin activation of the thrombin probe (purified thrombin): significantly less NIRF signal

Compound: Gly-D-Phe-Pip-Arg-Pro-Gly-Gly-Gly-Gly-Lys(FITC)-Cys-NH2
- stability against thrombin (thrombin; two hours following incubation with thrombin): remained intact
